Data taken from article PMC3462495 (2012).

Target: p90 ribosomal S6 kinase 2 (RSK2), N-terminal kinase domain (mRSK2NTKD) (Mus musculus, UniProt P18654)
Assay: ITC
Type: binding

Chain of p90 ribosomal S6 kinase 2 (RSK2), N-terminal kinase domain (mRSK2NTKD) (P18654 45-346): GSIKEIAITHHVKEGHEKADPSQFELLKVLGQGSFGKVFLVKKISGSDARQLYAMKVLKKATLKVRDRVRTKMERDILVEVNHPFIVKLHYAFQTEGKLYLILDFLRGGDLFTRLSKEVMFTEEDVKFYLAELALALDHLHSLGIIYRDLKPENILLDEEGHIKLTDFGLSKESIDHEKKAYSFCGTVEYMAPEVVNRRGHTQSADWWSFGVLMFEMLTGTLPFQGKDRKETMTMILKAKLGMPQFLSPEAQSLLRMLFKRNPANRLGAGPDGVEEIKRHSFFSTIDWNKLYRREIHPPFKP

Nc1ncnc2c1ncn2[C@@H]1O[C@H](COP(=O)(O)OP(=O)(O)NP(=O)(O)O)[C@@H](O)[C@H]1O [AMP-PNP] was tested, and the Kd was 50 µM.
